Measured values published in patent US20230181535A1, “UBIQUITIN-LIGASE INHIBITORS FOR THE TREATMENT OF CANCER” (FUNDACIÓN PROFESOR NOVOA SANTOS, priority 2020, published 2023).

Key:
LoVo cells = test: Immunofluorescence of E-cadherin, LoVo; format: cell-based; settings: 48 h, vs DMSO
Description: For western blot analysis, cells were treated with the indicated inhibitors for 48 h and the whole cell extracts were obtained as described previously. Twenty micrograms of lysates were resolved on a 10% polyacrilamide SDS-PAGE followed by western blot analysis performed as previously described. For immunofluorescence assays cells were grown for 24 h on glass coverslips and treated with the indicated inhibitors for 48 h. Cells were fixed with 4% PFA for 15 min, permeabilized with 0.5% […] and incubated with E-cadherin antibody for 2 h. Coverslips were incubated with fluorescein-tagged secondary antibody (Dakopatts, Sweden) for […]. Finally coverslips were mounted with ProLong Gold antifade reagent (LifeTech, UK) and images were taken in epifluorescence microscope (Olympus) using 40× objective. […] One set of SIM Synthetic Focus images were taken in the DAPI channel for Hoechst 33342 staining, and another set of images were taken in the FITC channel for anti-E-cadherin-AlexaFluor488 labeling and analysed by Structured Illumination Microscopy (SIM™) platform to image the cells and Vala's CyteSeer® Cell-Cell Junction Algorithm to quantify the degree of expression and intracellular location of E-cadherin Vala's CyteSeer® Software can also measure relative DNA content by analyzing Total Integrated Intensity (TII) of the Nuclear Image (Ni) on the Nuclear Mask (Nm). […]

HT-29 cells = test: Soft agar-colony formation assay, HT-29; format: cell-based, human; settings: 28 days
Description: Soft agar-colony formation assay was performed on 12-well plates in triplicates at a density of 5×10^3 MDCK and MDCK-Hakai cells/well, or 12×10^3 HT29 cells/well. Cells were seeded in medium with 0.5% low-melting agarose over a layer with 0.75% low-melting agarose (Lonza Rockland, Me., USA). Cells were treated with the indicated inhibitors and DMSO was used as vehicle. Treatment was refreshed every 3 days and, after 21 days for MDCK and MDCK-Hakai cells or 28 days for HT29 cells, number of colonies were quantified. Quantification of five randomly-selected fields of each condition was photographed with a Nikon Eclipse-TI microscope (objective 4×). Experiments were conducted with three triplicates and were repeated three times. Data are represented as mean±SD.

[1] = test system: ubiquitination in 293T cells; test: Ubiquitination assay in 293T cells transfected with v-Src and HA-ubiquitin (Hakai not overexpressed); format: cell-based; settings: vs DMSO
Description: Six hours after transfection cells were treated with indicated concentrations of Hakin-1, Hakin-5 or the rest of the compounds tested for 36 h. Whole cell extracts were obtained in lysis buffer (20 mM Tris-HCl pH 7.5, 150 mM NaCl and 1% Triton X-100) containing 10 μg/ml leupeptin, 10 μg/ml aprotinin and 1 mM phenylmethanesulphonyl fluoride (PMSF), supplemented with 10 mM N-ethylmaleimide. Cells were harvested and subjected to western blotting using anti-HA antibody to detect ubiquitination.

liver cancer HepG2 cells = test: BrdU proliferation assay, HepG2; format: cell-based, human; settings: 48 h
Description: (§1) For BrdU assays, 1×10^4 of indicated cells were plated per well into a 96-well plate. After 24 h, cells were treated with the indicated inhibitors for 48 h. Three independent experiments were plated with six replicates per each condition. Cells were treated with […] BrdU for 2 h. BrdU incorporation into newly synthesized DNA was measured using a cell proliferation colorimetric immunoassay kit according to the manufacturer's instructions (Roche, Switzerland). Results are expressed as mean±S.D. Results are represented as percentage of positive cells (mean±S.D) of three independent experiments.

[2] = test system: HT-29 colon tumour cell line; test: MTT cell viability assay, HT-29; format: cell-based, human; settings: increasing range of concentrations
Description: For cytotoxicity assays, 1×10^4 cells were seeded per well into a 96-well plate. After 24 h cells were treated with the indicated inhibitors for 72 h and a MTT colorimetric cell viability assay was performed following manufacturer's instructions (Sigma Aldrich, St Louis, Mo.). Absorbance was measured at 570 and 630 nm using a Multiskan Plus Reader (Nanoquant Infinite M200 Tecan Trading AG, Switzerland). Dose-response curves were designed with Graph Pad Prism Software and the half-maximal inhibitory concentration (IC50) values were calculated. Represented data are the mean±SEM of at least three independent experiments with six replicates per condition.

[3] = test system: Colon cancer HCT116 cells; test: BrdU proliferation assay, HCT116; format: cell-based, human; settings: 48 h
Description: as §1

| SMILES | E-cadherin levels at cell-cell contacts (immunofluorescence) (LoVo cells) | colony formation in soft agar (HT-29 cells) | ubiquitination when Hakai was not overexpressed [1] | cell proliferation (BrdU) (liver cancer HepG2 cells) | cytotoxicity (cell viability, MTT) [2] | cell proliferation (BrdU) [3] |
| --- | --- | --- | --- | --- | --- | --- |
| O=C(O)c1ccc(-n2nnnc2SCC(=O)c2ccc([N+](=O)[O-])cc2)cc1 [Hakin-1, 4-(5-[2-(4-nitrophenyl)-2-oxoethyl]thiol-1H-tetrazol-1-yl)benzoic acid] | significant increase E-cadherin levels at cell-cell contacts | robust inhibition of colony formation | did not affect ubiquitination | inhibited cell proliferation | important inhibitory response |  |
| O=C(O)c1ccc(-n2nnnc2SCC(O)c2ccc([N+](=O)[O-])cc2)cc1 (stereo not drawn) [MKH1] |  |  |  |  |  | inhibit cell proliferation |
